{"source": "paper PMC7316778", "about": "(Nature Communications, 2020)", "key": {"ROS1": {"target": "ROS1 (Homo sapiens, UniProt P08922)", "assay": "SelectScreen kinase assay"}, "FES^S700C": {"target": "FES^S700C (Homo sapiens, UniProt P07332, S700C)", "assay": "Time-dependent probe displacement by WEL033 in lysate"}, "GSK3B (GSK3 beta)": {"target": "GSK3B (GSK3 beta) (Homo sapiens, UniProt P49841)", "assay": "SelectScreen kinase assay"}, "GSK3A (GSK3 alpha)": {"target": "GSK3A (GSK3 alpha) (Homo sapiens, UniProt P49840)", "sequence (P49840 whole entry)": "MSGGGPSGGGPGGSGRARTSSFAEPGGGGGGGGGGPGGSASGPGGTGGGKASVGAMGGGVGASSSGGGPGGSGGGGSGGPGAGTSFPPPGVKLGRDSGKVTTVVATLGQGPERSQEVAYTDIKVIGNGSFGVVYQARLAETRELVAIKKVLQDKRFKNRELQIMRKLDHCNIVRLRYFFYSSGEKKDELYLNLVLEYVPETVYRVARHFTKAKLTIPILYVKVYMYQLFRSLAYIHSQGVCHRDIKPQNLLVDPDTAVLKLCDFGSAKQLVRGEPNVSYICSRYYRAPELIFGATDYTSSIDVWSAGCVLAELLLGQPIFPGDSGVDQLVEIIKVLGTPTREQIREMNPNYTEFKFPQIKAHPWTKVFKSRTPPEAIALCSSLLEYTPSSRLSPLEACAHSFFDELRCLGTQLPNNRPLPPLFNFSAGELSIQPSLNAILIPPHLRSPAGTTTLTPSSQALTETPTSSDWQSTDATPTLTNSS", "assay": "SelectScreen kinase assay"}, "JAK3": {"target": "T1, JAK3 (Homo sapiens, UniProt P52333)", "T1 sequence (P52333 1-1124)": "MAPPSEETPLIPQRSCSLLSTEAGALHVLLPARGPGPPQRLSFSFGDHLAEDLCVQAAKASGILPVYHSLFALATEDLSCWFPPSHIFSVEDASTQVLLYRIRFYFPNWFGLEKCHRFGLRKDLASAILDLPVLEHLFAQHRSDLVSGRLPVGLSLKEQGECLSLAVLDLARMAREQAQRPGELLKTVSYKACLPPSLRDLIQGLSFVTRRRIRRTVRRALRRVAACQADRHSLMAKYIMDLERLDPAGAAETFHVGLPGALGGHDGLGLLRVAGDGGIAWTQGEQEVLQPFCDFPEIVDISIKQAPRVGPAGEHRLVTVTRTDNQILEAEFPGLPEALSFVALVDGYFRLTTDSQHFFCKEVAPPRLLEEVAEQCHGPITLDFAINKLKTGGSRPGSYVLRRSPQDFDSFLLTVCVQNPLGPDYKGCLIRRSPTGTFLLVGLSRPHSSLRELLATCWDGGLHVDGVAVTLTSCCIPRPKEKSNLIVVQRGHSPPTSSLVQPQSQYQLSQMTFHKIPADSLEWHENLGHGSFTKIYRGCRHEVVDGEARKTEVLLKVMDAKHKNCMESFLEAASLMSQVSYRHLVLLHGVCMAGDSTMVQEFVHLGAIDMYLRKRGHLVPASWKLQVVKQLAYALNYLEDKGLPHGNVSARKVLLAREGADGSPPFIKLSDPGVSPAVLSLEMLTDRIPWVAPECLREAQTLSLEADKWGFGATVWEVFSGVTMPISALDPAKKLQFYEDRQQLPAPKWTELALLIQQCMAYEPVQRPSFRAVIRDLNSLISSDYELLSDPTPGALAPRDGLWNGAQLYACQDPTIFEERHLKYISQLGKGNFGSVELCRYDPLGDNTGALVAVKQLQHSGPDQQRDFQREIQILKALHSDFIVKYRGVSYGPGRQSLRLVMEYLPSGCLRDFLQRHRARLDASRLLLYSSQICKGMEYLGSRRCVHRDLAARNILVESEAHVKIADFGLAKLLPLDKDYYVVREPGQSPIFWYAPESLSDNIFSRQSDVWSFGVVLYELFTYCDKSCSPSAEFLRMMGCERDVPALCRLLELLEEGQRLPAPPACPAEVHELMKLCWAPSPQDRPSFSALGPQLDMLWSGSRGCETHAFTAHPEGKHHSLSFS", "assay": "SelectScreen kinase assay"}, "DMPK": {"target": "DMPK (Homo sapiens, UniProt Q09013)", "assay": "SelectScreen kinase assay"}, "STK17A (DRAK1)": {"target": "T2, STK17A (DRAK1) (Homo sapiens, UniProt Q9UEE5)", "T2 sequence (Q9UEE5 1-414)": "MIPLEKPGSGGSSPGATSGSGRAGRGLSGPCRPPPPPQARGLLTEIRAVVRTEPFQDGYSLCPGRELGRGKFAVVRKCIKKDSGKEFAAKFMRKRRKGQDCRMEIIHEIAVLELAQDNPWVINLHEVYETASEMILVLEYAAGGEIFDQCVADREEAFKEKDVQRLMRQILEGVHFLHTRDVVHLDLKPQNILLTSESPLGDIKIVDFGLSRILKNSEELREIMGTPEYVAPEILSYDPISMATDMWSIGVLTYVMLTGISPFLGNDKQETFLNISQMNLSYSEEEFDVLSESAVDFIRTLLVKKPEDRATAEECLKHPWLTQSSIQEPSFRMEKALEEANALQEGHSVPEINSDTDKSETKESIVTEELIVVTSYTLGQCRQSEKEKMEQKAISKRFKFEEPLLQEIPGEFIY", "assay": "SelectScreen kinase assay"}, "PIK3CG (p110 gamma)": {"target": "PIK3CG (p110 gamma) (Homo sapiens, UniProt P48736)", "sequence (P48736 whole entry)": "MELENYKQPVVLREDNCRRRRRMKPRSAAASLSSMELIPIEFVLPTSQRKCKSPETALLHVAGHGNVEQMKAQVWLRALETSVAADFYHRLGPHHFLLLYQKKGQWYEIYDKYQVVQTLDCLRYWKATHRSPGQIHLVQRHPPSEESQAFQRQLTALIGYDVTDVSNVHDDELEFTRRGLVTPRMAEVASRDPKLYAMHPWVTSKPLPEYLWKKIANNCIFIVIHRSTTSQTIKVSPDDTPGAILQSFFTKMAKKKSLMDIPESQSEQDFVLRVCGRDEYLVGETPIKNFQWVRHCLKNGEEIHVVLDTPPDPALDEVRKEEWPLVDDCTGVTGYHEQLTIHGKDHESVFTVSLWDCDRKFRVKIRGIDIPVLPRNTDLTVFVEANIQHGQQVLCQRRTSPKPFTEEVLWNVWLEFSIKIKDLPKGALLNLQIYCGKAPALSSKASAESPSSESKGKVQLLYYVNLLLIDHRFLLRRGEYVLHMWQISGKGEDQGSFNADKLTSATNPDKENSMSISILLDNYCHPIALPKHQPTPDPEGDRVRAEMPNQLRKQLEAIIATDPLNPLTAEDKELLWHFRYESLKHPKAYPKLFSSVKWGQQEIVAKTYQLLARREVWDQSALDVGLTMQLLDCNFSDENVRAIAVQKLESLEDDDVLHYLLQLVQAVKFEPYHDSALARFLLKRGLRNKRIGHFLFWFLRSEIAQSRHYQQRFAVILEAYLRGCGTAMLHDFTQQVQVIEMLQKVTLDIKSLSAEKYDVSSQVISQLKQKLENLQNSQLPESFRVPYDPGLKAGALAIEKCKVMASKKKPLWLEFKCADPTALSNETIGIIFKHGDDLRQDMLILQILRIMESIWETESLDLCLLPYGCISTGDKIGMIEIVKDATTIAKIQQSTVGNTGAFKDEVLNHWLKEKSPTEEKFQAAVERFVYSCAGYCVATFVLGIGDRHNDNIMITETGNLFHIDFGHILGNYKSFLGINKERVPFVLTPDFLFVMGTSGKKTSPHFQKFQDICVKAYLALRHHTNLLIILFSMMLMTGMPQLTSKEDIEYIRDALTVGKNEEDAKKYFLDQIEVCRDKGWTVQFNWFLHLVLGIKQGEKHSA", "assay": "SelectScreen kinase assay"}, "WNK3": {"target": "WNK3 (Homo sapiens, UniProt Q9BYP7)", "sequence (Q9BYP7 whole entry)": "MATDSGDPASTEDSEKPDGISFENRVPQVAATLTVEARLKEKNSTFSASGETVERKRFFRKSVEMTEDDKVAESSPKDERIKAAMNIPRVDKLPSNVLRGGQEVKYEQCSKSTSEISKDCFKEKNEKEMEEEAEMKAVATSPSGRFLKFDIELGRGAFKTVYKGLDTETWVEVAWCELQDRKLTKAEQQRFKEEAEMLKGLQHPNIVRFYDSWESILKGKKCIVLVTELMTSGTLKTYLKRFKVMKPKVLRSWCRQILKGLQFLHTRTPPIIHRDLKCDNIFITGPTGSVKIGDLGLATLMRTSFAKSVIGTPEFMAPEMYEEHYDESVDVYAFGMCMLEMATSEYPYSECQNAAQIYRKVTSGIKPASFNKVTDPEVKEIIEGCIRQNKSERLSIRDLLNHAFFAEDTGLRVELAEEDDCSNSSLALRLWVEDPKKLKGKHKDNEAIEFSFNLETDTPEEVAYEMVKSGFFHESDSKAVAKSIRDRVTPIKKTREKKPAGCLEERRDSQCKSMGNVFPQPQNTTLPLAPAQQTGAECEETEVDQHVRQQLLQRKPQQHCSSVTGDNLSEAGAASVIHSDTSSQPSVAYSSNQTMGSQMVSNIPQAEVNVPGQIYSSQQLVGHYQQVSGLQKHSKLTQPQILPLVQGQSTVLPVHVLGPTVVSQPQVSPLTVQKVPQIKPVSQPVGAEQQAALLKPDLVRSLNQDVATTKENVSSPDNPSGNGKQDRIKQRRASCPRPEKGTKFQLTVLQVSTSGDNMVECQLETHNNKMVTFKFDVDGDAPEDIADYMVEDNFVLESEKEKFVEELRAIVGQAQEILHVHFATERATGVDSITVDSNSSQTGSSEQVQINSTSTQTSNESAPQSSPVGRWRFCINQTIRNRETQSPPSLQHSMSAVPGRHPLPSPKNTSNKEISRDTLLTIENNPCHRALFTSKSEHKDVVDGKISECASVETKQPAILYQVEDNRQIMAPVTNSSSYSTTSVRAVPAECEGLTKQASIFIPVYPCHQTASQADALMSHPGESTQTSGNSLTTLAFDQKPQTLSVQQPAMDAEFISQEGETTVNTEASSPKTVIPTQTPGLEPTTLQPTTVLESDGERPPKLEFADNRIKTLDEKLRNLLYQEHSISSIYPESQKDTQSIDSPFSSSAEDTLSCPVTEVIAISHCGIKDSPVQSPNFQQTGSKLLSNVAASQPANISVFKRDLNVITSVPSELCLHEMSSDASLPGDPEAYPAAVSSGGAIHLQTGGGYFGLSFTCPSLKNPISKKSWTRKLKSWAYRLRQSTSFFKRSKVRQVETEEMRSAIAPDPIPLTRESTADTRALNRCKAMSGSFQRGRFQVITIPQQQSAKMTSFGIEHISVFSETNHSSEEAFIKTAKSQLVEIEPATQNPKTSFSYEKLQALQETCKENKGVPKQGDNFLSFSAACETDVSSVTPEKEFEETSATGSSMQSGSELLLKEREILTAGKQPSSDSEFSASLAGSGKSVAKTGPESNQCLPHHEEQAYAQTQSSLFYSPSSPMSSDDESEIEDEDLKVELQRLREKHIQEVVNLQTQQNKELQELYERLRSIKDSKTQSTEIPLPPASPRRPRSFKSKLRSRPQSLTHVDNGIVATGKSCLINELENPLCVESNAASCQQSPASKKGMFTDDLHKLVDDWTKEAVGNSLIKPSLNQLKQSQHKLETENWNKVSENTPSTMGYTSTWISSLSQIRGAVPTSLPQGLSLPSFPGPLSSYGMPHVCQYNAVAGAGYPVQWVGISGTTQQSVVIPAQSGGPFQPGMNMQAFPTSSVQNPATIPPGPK", "assay": "SelectScreen kinase assay"}, "STK38L (NDR2)": {"target": "STK38L (NDR2) (Homo sapiens, UniProt Q9Y2H1)", "sequence (Q9Y2H1 whole entry)": "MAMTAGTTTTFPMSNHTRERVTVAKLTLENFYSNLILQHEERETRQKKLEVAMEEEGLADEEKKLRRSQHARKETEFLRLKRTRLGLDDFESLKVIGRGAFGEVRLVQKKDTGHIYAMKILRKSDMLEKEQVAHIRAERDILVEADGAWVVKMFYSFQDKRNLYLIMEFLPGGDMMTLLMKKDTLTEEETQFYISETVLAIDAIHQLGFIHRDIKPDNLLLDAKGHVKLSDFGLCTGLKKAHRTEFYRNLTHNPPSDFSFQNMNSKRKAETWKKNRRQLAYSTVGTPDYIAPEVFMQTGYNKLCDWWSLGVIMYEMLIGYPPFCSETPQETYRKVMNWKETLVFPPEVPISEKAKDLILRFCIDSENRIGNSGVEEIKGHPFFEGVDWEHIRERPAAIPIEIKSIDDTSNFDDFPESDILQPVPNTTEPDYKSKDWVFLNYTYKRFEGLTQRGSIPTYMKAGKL", "assay": "SelectScreen kinase assay", "details": "for Inhibition at 1 µM (%): LanthaScreen Binding"}, "MAPK9 (JNK2)": {"target": "MAPK9 (JNK2) (Homo sapiens, UniProt P45984)", "sequence (P45984 whole entry)": "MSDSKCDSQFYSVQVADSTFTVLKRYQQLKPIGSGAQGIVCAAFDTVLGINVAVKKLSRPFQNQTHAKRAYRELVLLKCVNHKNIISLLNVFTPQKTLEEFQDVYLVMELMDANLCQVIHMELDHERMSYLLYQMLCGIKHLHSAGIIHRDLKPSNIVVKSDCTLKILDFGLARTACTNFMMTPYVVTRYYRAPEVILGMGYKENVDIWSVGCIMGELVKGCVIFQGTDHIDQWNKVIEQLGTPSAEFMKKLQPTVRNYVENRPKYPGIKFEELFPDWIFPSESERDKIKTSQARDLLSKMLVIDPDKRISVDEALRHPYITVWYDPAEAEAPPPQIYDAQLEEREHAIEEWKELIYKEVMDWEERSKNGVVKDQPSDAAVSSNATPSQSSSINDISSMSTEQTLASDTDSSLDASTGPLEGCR", "assay": "SelectScreen kinase assay"}, "STK38 (NDR)": {"target": "STK38 (NDR) (Homo sapiens, UniProt Q15208)", "sequence (Q15208 whole entry)": "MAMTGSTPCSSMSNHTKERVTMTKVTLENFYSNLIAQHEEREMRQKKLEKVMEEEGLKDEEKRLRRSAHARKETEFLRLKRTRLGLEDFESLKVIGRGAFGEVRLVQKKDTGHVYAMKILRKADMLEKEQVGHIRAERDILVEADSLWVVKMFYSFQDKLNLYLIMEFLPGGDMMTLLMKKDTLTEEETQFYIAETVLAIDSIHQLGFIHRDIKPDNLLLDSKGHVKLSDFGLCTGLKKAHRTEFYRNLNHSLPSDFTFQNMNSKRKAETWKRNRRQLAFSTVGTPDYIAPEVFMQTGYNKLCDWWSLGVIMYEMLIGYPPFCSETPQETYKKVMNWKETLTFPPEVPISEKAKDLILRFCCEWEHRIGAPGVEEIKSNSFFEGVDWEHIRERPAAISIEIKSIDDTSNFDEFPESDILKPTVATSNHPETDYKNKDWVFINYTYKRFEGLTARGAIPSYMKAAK", "assay": "SelectScreen kinase assay", "details": "for Inhibition at 1 µM (%): LanthaScreen Binding"}, "CSNK1A1 (CK1 alpha 1)": {"target": "CSNK1A1 (CK1 alpha 1) (Homo sapiens, UniProt P48729)", "sequence (P48729 whole entry)": "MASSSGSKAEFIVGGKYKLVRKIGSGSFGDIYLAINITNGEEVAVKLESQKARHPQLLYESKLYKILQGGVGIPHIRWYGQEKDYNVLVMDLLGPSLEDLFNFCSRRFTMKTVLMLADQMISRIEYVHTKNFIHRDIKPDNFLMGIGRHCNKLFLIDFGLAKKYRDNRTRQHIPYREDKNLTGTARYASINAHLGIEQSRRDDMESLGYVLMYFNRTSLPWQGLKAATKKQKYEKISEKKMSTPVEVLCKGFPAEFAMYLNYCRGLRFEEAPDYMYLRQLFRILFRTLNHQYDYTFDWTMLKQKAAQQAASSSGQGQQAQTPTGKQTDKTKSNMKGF", "assay": "SelectScreen kinase assay"}, "[1]": {"details": "1 h, 1 μM WEL028, 1 h preincubation"}, "[2]": {"details": "1 µM, LanthaScreen Binding, listed as WEL028, 1 µM"}}, "note": "Where “and” joins values, the source holds several entries; their conditions need not be identical. Equal values may be shown once. Read-outs that look alike come from different tables or passages of the source.", "data": [{"smiles": "C#CCOc1ccc(Nc2ncc(Cl)c(Nc3ccccc3NC(=O)C=C)n2)c(OC)c1", "note": "[Compound 6]", "values": [{"measurement": "IC50", "setting": "ROS1", "result": "> 10000", "unit": "nM"}, {"measurement": "Inhibition at 1 µM (%)", "setting": "ROS1; 1 µM, ZLYTE, ATP Km app, listed as WEL028, 1 µM", "result": 52, "unit": "%"}, {"measurement": "inhibition at 1 µM", "setting": "ROS1; [1]", "result": 56, "unit": "%"}, {"measurement": "inhibition at 10 µM", "setting": "ROS1; 1 h, log[inhibitor] (M) -5.00, ZLYTE, ATP Km app", "result": 76, "unit": "%"}, {"measurement": "inhibition at 3.31 µM", "setting": "ROS1; 1 h, log[inhibitor] (M) -5.48, ZLYTE, ATP Km app", "result": 80, "unit": "%"}, {"measurement": "inhibition at 1.12 µM", "setting": "ROS1; 1 h, log[inhibitor] (M) -5.95, ZLYTE, ATP Km app", "result": 53, "unit": "%"}, {"measurement": "inhibition at 0.372 µM", "setting": "ROS1; 1 h, log[inhibitor] (M) -6.43, ZLYTE, ATP Km app", "result": 42, "unit": "%"}, {"measurement": "inhibition at 0.123 µM", "setting": "ROS1; 1 h, log[inhibitor] (M) -6.91, ZLYTE, ATP Km app", "result": 23, "unit": "%"}, {"measurement": "inhibition at 0.00151 µM", "setting": "ROS1; 1 h, log[inhibitor] (M) -8.82, ZLYTE, ATP Km app", "result": 6, "unit": "%"}, {"measurement": "Apparent fold selectivity", "setting": "ROS1; IC50 on that kinase divided by IC50 on FES^S700C", "result": "> 238", "unit": "fold"}, {"measurement": "inhibition at 1 µM", "setting": "ROS1; read-out: Inhibition at 1 µM (%), 1 µM, ZLYTE, ATP Km app", "result": 60, "unit": "%"}, {"measurement": "IC80", "setting": "FES^S700C; read-out: IC80-concentration (20% remaining activity)", "result": 27, "unit": "nM"}, {"measurement": "Mode of action", "setting": "FES^S700C; recovery of WEL033 labeling after inhibitor at IC80", "result": "irreversible"}, {"measurement": "inhibition at 1 µM", "setting": "GSK3B (GSK3 beta); [1]", "result": 4, "unit": "%"}, {"measurement": "inhibition at 1 µM", "setting": "GSK3B (GSK3 beta); read-out: Inhibition at 1 µM (%), GSK3B (GSK3 beta), 1 µM, ZLYTE, ATP Km app", "result": 5, "unit": "%"}, {"measurement": "inhibition at 1 µM", "setting": "GSK3A (GSK3 alpha); [1]", "result": 6, "unit": "%"}, {"measurement": "Inhibition at 1 µM (%)", "setting": "GSK3A (GSK3 alpha); GSK3A (GSK3 alpha), 1 µM, ZLYTE, ATP Km app, listed as WEL028, 1 µM", "result": 7, "unit": "%"}, {"measurement": "inhibition at 1 µM", "setting": "GSK3A (GSK3 alpha); read-out: Inhibition at 1 µM (%), GSK3A (GSK3 alpha), 1 µM, ZLYTE, ATP Km app", "result": 5, "unit": "%"}, {"measurement": "inhibition at 1 µM", "setting": "JAK3; [1]", "result": 14, "unit": "%"}, {"measurement": "Inhibition at 1 µM (%)", "setting": "JAK3; JAK3, 1 µM, ZLYTE, ATP Km app, listed as WEL028, 1 µM", "result": 10, "unit": "%"}, {"measurement": "inhibition at 1 µM", "setting": "JAK3; read-out: Inhibition at 1 µM (%), JAK3, 1 µM, ZLYTE, ATP Km app", "result": 18, "unit": "%"}, {"measurement": "inhibition at 1 µM", "setting": "DMPK; [1]", "result": 3, "unit": "%"}, {"measurement": "Inhibition at 1 µM (%)", "setting": "DMPK; DMPK, 1 µM, LanthaScreen Binding, listed as WEL028, 1 µM", "result": "1% and 5%"}, {"measurement": "Inhibition at 1 µM (%)", "setting": "STK17A (DRAK1); [2]", "result": 10, "unit": "%"}, {"measurement": "inhibition at 1 µM", "setting": "STK17A (DRAK1); [1]", "result": 9, "unit": "%"}, {"measurement": "inhibition at 1 µM", "setting": "STK17A (DRAK1); read-out: Inhibition at 1 µM (%), 1 µM, LanthaScreen Binding", "result": 8, "unit": "%"}, {"measurement": "inhibition at 1 µM", "setting": "PIK3CG (p110 gamma); [1]", "result": 13, "unit": "%"}, {"measurement": "Inhibition at 1 µM (%)", "setting": "PIK3CG (p110 gamma); PIK3CG (p110 gamma), 1 µM, Adapta, ATP Km app, listed as WEL028, 1 µM", "result": 18, "unit": "%"}, {"measurement": "inhibition at 1 µM", "setting": "PIK3CG (p110 gamma); read-out: Inhibition at 1 µM (%), PIK3CG (p110 gamma), 1 µM, Adapta, ATP Km app", "result": 9, "unit": "%"}, {"measurement": "Inhibition at 1 µM (%)", "setting": "WNK3; [2]", "result": "5% and 1%"}, {"measurement": "inhibition at 1 µM", "setting": "WNK3; [1]", "result": 3, "unit": "%"}, {"measurement": "Inhibition at 1 µM (%)", "setting": "STK38L (NDR2)", "result": 2, "unit": "%"}, {"measurement": "Inhibition at 1 µM (%)", "setting": "STK38L (NDR2); listed as WEL028, 1 µM", "result": 7, "unit": "%"}, {"measurement": "inhibition at 1 µM", "setting": "STK38L (NDR2); [1]", "result": 5, "unit": "%"}, {"measurement": "Inhibition (%)", "setting": "MAPK9 (JNK2); 1 μM WEL028, 1 h preincubation", "result": 2, "unit": "%"}, {"measurement": "Inhibition at 1 µM (%)", "setting": "MAPK9 (JNK2); MAPK9 (JNK2), 1 µM, ZLYTE, ATP 100, listed as WEL028, 1 µM", "result": "-1% and 5%"}, {"measurement": "Inhibition at 1 µM (%)", "setting": "STK38 (NDR)", "result": 2, "unit": "%"}, {"measurement": "Inhibition at 1 µM (%)", "setting": "STK38 (NDR); listed as WEL028, 1 µM", "result": 6, "unit": "%"}, {"measurement": "inhibition at 1 µM", "setting": "STK38 (NDR); [1]", "result": 4, "unit": "%"}, {"measurement": "inhibition at 1 µM", "setting": "CSNK1A1 (CK1 alpha 1); [1]", "result": 9, "unit": "%"}, {"measurement": "Inhibition at 1 µM (%)", "setting": "CSNK1A1 (CK1 alpha 1); CSNK1A1 (CK1 alpha 1), 1 µM, ZLYTE, ATP Km app, listed as WEL028, 1 µM", "result": 12, "unit": "%"}, {"measurement": "inhibition at 1 µM", "setting": "CSNK1A1 (CK1 alpha 1); read-out: Inhibition at 1 µM (%), CSNK1A1 (CK1 alpha 1), 1 µM, ZLYTE, ATP Km app", "result": 6, "unit": "%"}]}]}
